Experimental data: patent US12679839B2, “Cyclin-dependent kinase 7 (CDK7) non-covalent inhibitors” (JANSSEN PHARMACEUTICA NV, priority 2020, dated 2026)

Experiments:
[1] = system: RNA polymerase II Serine 5 phosphorylation (Rpb1 CTD), downstream substrate of CDK7; experiment: Imaging-based cellular RNA PolII Ser5 phosphorylation assay in A549 cells; type: cell-based, human; conditions: challenged with compound for 3 hours; for IC50: Homo sapiens, A549, 3 h, read-out: pRNA polII Ser5 (A549) pIC50 (converted)
Text: Dosing curves were fitted using the following equation to obtain IC50: Y=Bottom+(Top−Bottom)/(1+10^((log IC50−X)*Hill slope)) where X=log10 of the compound concentration; top and bottom can be defined by PC and NC respectively. Imaging-Based Cellular RNA PolII Ser5 Phosphorylation Assay
To evaluate inhibition of CDK7 kinase activity, a 384-well automated imaging assay was used. This assay detects Serine 5 phosphorylation on a unique heptapeptide sequence in the C-terminal domain of Rpb1 subunit of RNA polymerase II, the downstream substrate of CDK7. This heptapeptide sequence is repeated up to 52 times in the CTD of Rpb1.
A549 adenocarcinoma human alveolar basal epithelial cells (ATCC, CCL-185), rabbit Phospho-Rpb1 CTD (Ser5) antibody (D9N51 (Cell Signaling Technology)), DMEM (Sigma), Fetal Bovine Serum (Biowest), L-glutamine (Sigma), Penicillin/Streptomycin (Life Technologies), Sodium Pyruvate (Sigma), Hepes (Sigma), poly-D-lysine coated μclear 384 black plates (Greiner), formaldehyde (PolySciences), D-PBS (Sigma), Methanol (Sigma), Alexa Fluor 488 goat anti rabbit IgG secondary antibody (Life Technologies), HCS CellMask™ Deep Red stain (Life Technologies), Hoechst 33258 (Invitrogen).
RNA Polymerase II Serine 5 phosphorylation was detected using a specific rabbit Phospho-Rpb1 CTD (Ser5) antibody. A549 adenocarcinoma human alveolar basal epithelial cells were seeded in 20 μl medium (DMEM supplemented with 1% Fetal Bovine Serum (heat inactivated 30′ 56° C.), 2 mM L-glutamine, 50 U/ml penicillin 50 μg/ml streptomycin, 1 mM sodium pyruvate and 50 mM hepes) at 1000 cells/well and cultured in poly-D-lysine coated μclear 384 black plates for 20 hours at 37° C. and 5% CO2.
After incubation cells were challenged with compound for 3 hours at 37° C. and 5% CO2. DMSO was used as high control and as low control 10 μM of LDC4297 reference compound was used. 40 nl of test compounds and controls were spotted in cell plates using Echo Liquid Handler (Echo 550, Labcyte). Incubation was followed by 20 minutes fixation with 20 μl 10% formaldehyde at room temperature. Medium/formaldehyde solution was removed, plates were washed 3 times with 30 μl D-PBS (w/o Ca^2+ and Ma^2+) and permeabilization was done by adding 20 μl ice cold methanol for 20 minutes. Cells were washed again 3 times with 30 μl D-PBS and 20 μl blocking buffer (25 ml fetal bovine serum in 500 ml D-PBS) was added for 1 hour.
After removing blocking buffer 20 μl 1/1000 primary antibody rabbit. Phospho-Rpb1 CTD (Ser5) antibody was added which binds to the phosphorylated Serine5 of the heptapeptide sequences in the CTD of Rpb1. Primary antibody was removed, and plates were washed 3 times with 30 μl D-PBS followed by addition of 20 μl 1/2000 Alexa Fluor 488 goat anti rabbit IgG secondary antibody for final detection of Phospho-Rpb1 CTD (Ser5) together with 1/5000 HCS CellMask™ Deep Red stain for membrane staining and 1/5000 Hoechst 33258 for nucleus staining. Last, plates were washed 2 times with 30 μl D-PBS and wells were filled with 40 μL D-PBS, plates were sealed (Thermowell sealing tape) and stored at 4° C. until reading. Plates were read with Opera Phenix (Perkin Elmer) with 10× air objective. Data were calculated and analyzed in Phaedra.
IC50 values were calculated using the following formula:
Average value of all HC's and all LC's are used for normalizations. % Effect=100−(sample−LC)/(HC−LC)×100% Control=(sample/HC)×100
A best-fit curve is fitted by a minimum sum of squares method to the plot of % Control vs. compound concentration. From this an IC50 value can be obtained. An estimate of the slope of the plot in terms of the Hill coefficient is also obtained.

[2] = molecular target: T1, CDK7/Cyclin H/MAT-1 complex (Homo sapiens, UniProt P50613); experiment: Absorbance kinetic assay (20 nM CDK7/Cyclin H/MAT-1 complex); type: biochemical; conditions: for IC50: read-out: CDK7 (20 nM) pIC50 (converted)
T1 construct: Human CDK7 (amino acids 1-346); His6 (N); TEV protease cleavage site (N); made in house; host or cells: baculovirus-SF9 insect cells
Experimental: Human CDK7 (amino acids 1-346) containing an N-terminal His6-tag followed by a tobacco etch virus (TEV) protease cleavage site, human MAT1 (amino acids 1-309) and human cyclin H (amino acids 1-323) were co-expressed in the baculovirus-SF9 insect cell expression system to generate a trimeric complex. Cell pellets were collected 72 h post-infection and were resuspended by Dounce homogenization in 20 mM Hepes-NaOH (pH 8.0), 300 mM NaCl, 10% glycerol, 2 mM dithiothreitol DTT), and 20 mM Imidazole supplemented with cOmplete™ Protease Inhibitor Cocktail (Roche) and 25 U/mL Benzonase® Nuclease HC according to the manufacturer's instructions. Cells were lysed by passing through a Microfluidics M110Y Microfluidizer 3 times at 600 kPa followed by centrifugation at 38,000×g at 4° C. for 1 hour. The supernatant was loaded onto a pre-equilibrated HisTrap HP column and eluted in 20 mM Hepes-NaOH (pH 8.0), 50 mM NaCl, 10% glycerol, 2 mM DTT, and 400 mM Imidazole. The eluate was further purified by gel filtration on a Superdex S200 16/60 column and eluted with 20 mM Hepes-NaOH (pH 7.5), 50 mM NaCl, 10% Glycerol, 2 mM DTT. Fractions containing a trimeric complex of CDK7, cyclin H, and MAT1 in a 1:1:1 ratio were pooled and concentrated to 3 mg/mL in a 10 kDa MWCO concentrator, and diluted to a final concentration of 1.6 mg/mL in 11.1 mM Hepes-NaOH (pH 8.0), 27.8 mM NaCl, 1.1 mM DTT and 50% glycerol. […]
Absorbance Kinetic Assay (20 nM CDK7/Cyclin H/MAT-1 Complex)
CDK7 complex catalyzes the ATP-dependent phosphorylation of a peptide substrate CDK7/9-tide that is derived from RNA Pol II to produce phosphorylated peptide and ADP. The kinase reaction product ADP was converted to lactate and NAD^+ in the presence of phosphoenol pyruvate (PEP), NADH and coupling enzymes lactate dehydrogenase (LDH) and pyruvate kinase (PK). CDK7 complex catalytic activity was measured by following the absorbance intensity continuously at 340 nm that corresponds with the depletion of NADH.
Absorbance at 340 nm was followed kinetically at an interval of 2 minutes for 8 hours.
The assay was carried out with 100 μl reaction volume per well in a 384-well plate that was pre-spotted nanoliter volume of compounds by LabCyte Echo 555. Compound dilution plates were made by 2-fold (could vary upon necessity) dilution in DMSO for 11 concentrations plus a DMSO control of uninhibited reaction. 2× substrate and coupling reagent mixture was added to the assay plate followed by an addition of an equal volume of 40 nM CDK7/Cyclin H/MAT-1 complex. After mixing, assay plates were spun at 2000 rpm for 3 minutes and then transferred to the plate reader for data collection.
For reversible inhibitors, the absorbance reaction progress curves were linear. The steady-state rate was derived from the slope of the linear curves. The following equation is applied to determine percent inhibition.
[formula] • νo=max rate (uninhibited rate) • νi=inhibited rate
The IC50 value is calculated by the following equation:
[formula] where νo is the rate in the absence of inhibitor, νmin is the rate at highest inhibitor concentration, and h is the Hill coefficient. Flint Assay (5 nM CDK7/Cyclin H/MAT-1 Complex)

T1 sequence (P50613 whole entry, the tested form may be a part): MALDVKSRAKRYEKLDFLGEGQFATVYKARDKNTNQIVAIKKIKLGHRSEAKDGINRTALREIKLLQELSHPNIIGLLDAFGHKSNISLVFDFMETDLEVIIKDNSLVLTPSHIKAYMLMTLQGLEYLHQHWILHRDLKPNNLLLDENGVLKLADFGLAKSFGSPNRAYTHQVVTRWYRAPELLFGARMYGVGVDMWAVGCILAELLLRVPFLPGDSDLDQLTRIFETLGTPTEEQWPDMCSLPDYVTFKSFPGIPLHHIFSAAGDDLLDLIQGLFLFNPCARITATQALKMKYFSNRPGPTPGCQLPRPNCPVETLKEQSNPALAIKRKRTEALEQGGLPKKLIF
T1 sequence (P51946 whole entry partner, the tested form may be a part): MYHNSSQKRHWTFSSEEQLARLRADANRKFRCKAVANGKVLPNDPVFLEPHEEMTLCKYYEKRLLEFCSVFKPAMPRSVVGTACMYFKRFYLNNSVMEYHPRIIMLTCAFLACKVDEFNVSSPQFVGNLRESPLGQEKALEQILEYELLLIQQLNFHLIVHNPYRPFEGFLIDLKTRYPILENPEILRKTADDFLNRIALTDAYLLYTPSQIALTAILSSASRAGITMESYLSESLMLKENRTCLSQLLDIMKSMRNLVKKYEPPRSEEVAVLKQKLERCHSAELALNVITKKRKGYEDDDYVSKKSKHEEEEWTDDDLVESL
T1 sequence (P51948 whole entry partner, the tested form may be a part): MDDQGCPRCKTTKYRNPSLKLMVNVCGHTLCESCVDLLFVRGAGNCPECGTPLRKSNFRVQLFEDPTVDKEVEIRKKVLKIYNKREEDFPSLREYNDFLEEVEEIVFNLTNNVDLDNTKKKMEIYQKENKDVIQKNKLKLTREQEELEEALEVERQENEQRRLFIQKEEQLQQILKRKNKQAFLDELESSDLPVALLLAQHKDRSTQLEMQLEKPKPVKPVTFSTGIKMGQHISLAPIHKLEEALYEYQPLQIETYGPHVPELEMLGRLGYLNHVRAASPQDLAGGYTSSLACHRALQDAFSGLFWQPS

IC50 [1] [nM]	IC50 [2] [nM]	CDK7 (20 nM) pIC50 [2]	pRNA polII Ser5 (A549) pIC50 [1]	SMILES
2820	776			C[C@@H]1Cc2cnc(NCc3ccn(C)n3)nc2[C@@H](C)N1C(=O)[C@H]1CCN(C)C[C@@H]1c1ccccc1 (relative stereo) [Compound 197]
~67.6		7.92		C[C@@H]1Cc2cnc(NC3CCOCC3)nc2CN1C(=O)[C@H]1CCN(C)C[C@@H]1c1ccc(F)cc1 (single isomer, unassigned) [Compound 92b]
> 10000		6.74		C[C@@H]1Cc2cnc(NC3CCOCC3)nc2CN1C(=O)[C@H]1CCN(C2CC2)C[C@@H]1c1ccccc1 (single isomer, unassigned) [Compound 161]
> 10000	> 10000			C[C@@H]1Cc2cnc(NC3CCOCC3)nc2CN1C(=O)[C@@H]1CCN(C)C[C@H]1C1CC1 (relative stereo) [Compound 112]
200		7.78		C[C@@H]1Cc2cnc(NCc3ccccn3)nc2CN1C(=O)[C@H]1CCN(C)C[C@@H]1c1ccccc1 [Compound 35]
513		7.89		CN1CCN(C(=O)N2Cc3nc(NC4CCOCC4)ncc3CC2(C)C)[C@@H](c2ccccc2)C1 [Compound 205]
126		7.96		C[C@@H]1Cc2cnc(NC3CC(C)(C)OC(C)(C)C3)nc2CN1C(=O)[C@H]1CCN(C)C[C@@H]1c1ccccc1 [Compound 24]
479		7.89		C[C@@H]1Cc2cnc(N[C@H]3CC[C@@H](C)CC3)nc2CN1C(=O)[C@H]1CCN(C)C[C@@H]1c1ccccc1 [Compound 14]
> 10000	468			C[C@@H]1Cc2cnc(NC3CCOCC3)nc2CN1C(=O)[C@H]1CN(C)C[C@@H]1c1ccccc1 (relative stereo) [Compound 169a]
> 10000	16.2			C[C@@H]1Cc2cnc(NC3CCOCC3)nc2CN1C(=O)[C@@H]1CCN(C)C[C@H]1c1cccnc1 (relative stereo) [Compound 117]
776		7.46		C[C@@H]1Cc2cnc(NC3CCN(C4COC4)CC3)nc2CN1C(=O)[C@H]1CCN(C)C[C@@H]1c1ccccc1 [Compound 25]
		<5	~5.23	CO[C@H]1CC[C@H](Nc2cc3c(cn2)C[C@H](C)N(C(=O)[C@@H]2CCN(C)C[C@H]2c2cccc(C)c2)C3)CC1 [Compound 177b]
> 10000		<5		C[C@@H]1Cc2cnc(NC3CCOCC3)nc2CN1C(=O)[C@@H]1CCN(C)C[C@H]1c1ccc(Cl)c(F)c1 [Compound 122a]
302		7.97		C[C@H](Nc1ncc2c(n1)CN(C(=O)[C@H]1CCN(C)C[C@@H]1c1ccccc1)[C@H](C)C2)c1ccccc1 [Compound 23]
8320	214			C[C@@H]1Cc2cnc(NC3CCOCC3)nc2CN1C(=O)[C@H]1CCN(C)C[C@@H]1C1CC1 (racemic) [Compound 111]
162		7.88		C[C@@H]1Cc2cnc(NC3CCN(C(=O)C4CC4)CC3)nc2CN1C(=O)[C@H]1CCN(C)C[C@@H]1c1ccccc1 [Compound 33]
794	339			Cc1cccc([C@@H]2CN(C)CC[C@H]2C(=O)N2Cc3nc(Nc4cnn(C)c4)ncc3C[C@H]2C)c1 (relative stereo) [Compound 125]
1380		7.46		CO[C@H]1CC[C@@H](Nc2ncc3c(n2)CN(C(=O)[C@H]2CCN(C)C[C@@H]2c2ccccc2)[C@H](C)C3)CC1 [Compound 38]
275		7.94		C[C@@H]1Cc2cnc(NCC3CC3)nc2CN1C(=O)[C@H]1CCN(C)C[C@@H]1c1ccccc1 [Compound 34]
> 10000		5.11		C[C@@H]1Cc2cnc(NC3CCOCC3)nc2CN1C(=O)[C@@H]1CCN(C)C[C@H]1c1ccc(F)cc1 [Compound 92a]
3890		7.03		CC(C)n1cc(CNc2ncc3c(n2)CN(C(=O)[C@H]2CCN(C)C[C@@H]2c2ccccc2)[C@H](C)C3)cn1 [Compound 30]
